The source made the active and inactive calls. No cut-off for these calls is given here.
Columns and labels:
[1] = biological target: Metallo-beta-lactamase type 2 (Serratia marcescens) (UniProt P52699); experiment: Inhibition of Serratia marcescens IMP-1 expressed in Escherichia coli BL21 (DE3) at 5 mM using cephalothin as substrate preincubated for 5 mins followed by substrate addition
[2] = biological target: Metallo-beta-lactamase type 2 (Serratia marcescens) (UniProt P52699); experiment: Inhibition of Serratia marcescens IMP-1 expressed in Escherichia coli BL21 (DE3) at 5 mM using cephalothin as substrate preincubated for 5 mins followed by substrate addition relative to control
[3] = biological target: Metallo-beta-lactamase type 2 (Serratia marcescens, UniProt P52699); experiment: Inhibition of Serratia marcescens IMP-1 expressed in Escherichia coli BL21 (DE3) using cephalothin as substrate preincubated for 5 mins followed by substrate addition relative to citrate
Metallo-beta-lactamase type 2, sequence (P52699 whole entry): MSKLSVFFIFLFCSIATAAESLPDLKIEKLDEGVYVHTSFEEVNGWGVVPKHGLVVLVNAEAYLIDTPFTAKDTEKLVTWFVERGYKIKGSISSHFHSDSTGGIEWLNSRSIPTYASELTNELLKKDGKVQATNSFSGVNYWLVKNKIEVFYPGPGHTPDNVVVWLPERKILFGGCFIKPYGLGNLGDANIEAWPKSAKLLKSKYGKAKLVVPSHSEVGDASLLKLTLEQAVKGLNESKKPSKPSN

Metallo-beta-lactamase type 2 (Serratia marcescens), sequence (P52699 19-246 limits assumed): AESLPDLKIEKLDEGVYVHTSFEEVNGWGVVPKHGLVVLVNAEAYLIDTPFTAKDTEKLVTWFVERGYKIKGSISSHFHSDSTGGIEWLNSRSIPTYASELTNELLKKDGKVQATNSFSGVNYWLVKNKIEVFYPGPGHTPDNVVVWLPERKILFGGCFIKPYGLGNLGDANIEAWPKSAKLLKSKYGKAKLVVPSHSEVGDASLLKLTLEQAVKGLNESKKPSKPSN

For `O=C(O)CC(O)(CC(=O)O)C(=O)O`, the inhibition [1] was “inactive”.
`O=C(O)CC(O)(CC(=O)OCc1ccccc1)C(=O)O` (stereo not drawn) showed an inhibition [2] of 30% and an IC50 [3] greater than 5 mM.
